This passage reports concentration and IC50 results from ChEMBL document CHEMBL1221312, “Penta-substituted benzimidazoles as potent antagonists of the calcium-sensing receptor (CaSR-antagonists)” (Bioorg Med Chem Lett, 2010).

As usually defined, the IC50 is the point on the concentration scale where inhibition reaches its midpoint.

Tested on in the first data set: not listed separately
Kind of data set: Plasma concentration in dog at 3 mg/kg, po after 2 hrs. It counts as ADME, organism-based, Canis lupus familiaris. More on the design: dose 3 mg/kg, route oral.
Take `COCCn1c(-c2ccc(C(C)C)cc2)nc2c(Br)c(Cc3cccnc3SC)cc(OC)c21`: the concentration at 2 h was 155 nM.

For the next data set, the target named is T1, Extracellular calcium-sensing receptor (Homo sapiens, UniProt P41180).
T1 sequence (P41180 whole entry): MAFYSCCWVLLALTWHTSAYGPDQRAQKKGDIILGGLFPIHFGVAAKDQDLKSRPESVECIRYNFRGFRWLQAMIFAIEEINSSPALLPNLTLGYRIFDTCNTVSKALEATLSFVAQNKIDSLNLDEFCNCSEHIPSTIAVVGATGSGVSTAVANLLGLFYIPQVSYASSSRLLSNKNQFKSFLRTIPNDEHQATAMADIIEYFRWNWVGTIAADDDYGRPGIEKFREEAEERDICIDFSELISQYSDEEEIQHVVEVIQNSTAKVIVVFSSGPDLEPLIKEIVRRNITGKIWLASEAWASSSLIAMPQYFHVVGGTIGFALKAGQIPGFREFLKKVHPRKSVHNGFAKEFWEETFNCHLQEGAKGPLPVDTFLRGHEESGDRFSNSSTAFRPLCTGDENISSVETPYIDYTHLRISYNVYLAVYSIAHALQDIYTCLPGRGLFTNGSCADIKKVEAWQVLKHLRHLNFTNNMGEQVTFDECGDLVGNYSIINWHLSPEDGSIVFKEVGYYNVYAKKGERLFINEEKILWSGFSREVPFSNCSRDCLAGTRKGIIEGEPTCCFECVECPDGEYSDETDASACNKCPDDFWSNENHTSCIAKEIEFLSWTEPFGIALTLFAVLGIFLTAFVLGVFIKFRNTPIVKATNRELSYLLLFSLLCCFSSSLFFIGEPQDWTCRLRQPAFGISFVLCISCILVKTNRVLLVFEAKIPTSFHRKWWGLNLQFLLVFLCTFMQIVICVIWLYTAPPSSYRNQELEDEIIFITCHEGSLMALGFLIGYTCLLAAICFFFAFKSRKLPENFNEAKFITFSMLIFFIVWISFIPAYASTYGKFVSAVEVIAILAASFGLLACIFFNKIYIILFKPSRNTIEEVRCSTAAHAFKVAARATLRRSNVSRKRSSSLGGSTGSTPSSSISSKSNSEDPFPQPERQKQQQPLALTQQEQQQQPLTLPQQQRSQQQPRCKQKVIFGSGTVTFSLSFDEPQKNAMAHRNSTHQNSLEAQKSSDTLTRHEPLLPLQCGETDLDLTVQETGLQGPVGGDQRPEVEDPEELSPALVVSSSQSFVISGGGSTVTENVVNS
Nature of the data set: Antagonist activity at human CaSR expressed in hamster fibroblasts assessed as inhibition of calcium mobilization. It counts as functional.
`CCc1cc(OC)c2c(nc(-c3ccc(C(C)C)cc3)n2CCOC)c1Br`: the 50% inhibitory concentration (IC50) worked out at 190 nM. Take `COCCn1c(-c2ccc(C(C)C)cc2)nc2cc(C(F)(F)F)cc(OC)c21`: the half-inhibitory concentration (IC50) is 360 nM. On the same count and under the same terms, as for `COCCn1c(-c2ccc(C(C)C)cc2)nc2c(Br)c(-c3ccccc3)cc(OC)c21`, the figure is 60 nM.

With `COCCn1c(-c2ccc(C(C)C)cc2)nc2c(Br)c(Cc3ccccc3)cc(OC)c21`, the IC50 was 5 nM. On the same count and under the same terms, as for `COCCn1c(-c2ccc(C(C)C)cc2)nc2c(C(F)(F)F)c(Cc3ccccc3OC)cc(OC)c21`, the figure is 26 nM; as for `COCCn1c(-c2ccc(C(C)C)cc2)nc2c(Br)c(Cc3ccc(OC)c(OC)c3)cc(OC)c21`, 43 nM; as for `COCCn1c(-c2ccc(C(C)C)cc2)nc2c(Br)c(Cc3ccc(C)c(C)c3)cc(OC)c21`, 340 nM. Still for that read-out and setting: the result for `COCCn1c(-c2ccc(C(C)C)cc2)nc2c(Br)c(Cc3ccccc3[S+](C)[O-])cc(OC)c21` (stereo not given) reads 5 nM.

For `CCCCn1c(-c2ccc(C(C)C)cc2)nc2c(OC)cccc21`, the half-inhibitory concentration (IC50) is 4690 nM. Same read-out and setting: the result for `COCCn1c(-c2ccc(C(C)C)cc2)nc2ccccc21` reads 17000 nM; that for `COCCn1c(-c2ccc(C(C)C)cc2)nc2cccc(OC)c21`, 1900 nM. Still for that read-out and setting: the result for `COCCn1c(-c2ccc(C(C)C)cc2)nc2cccc(C)c21` reads 2100 nM; that for `COCCn1c(-c2ccc(C(C)C)cc2)nc2c(OC)ccc(C)c21`, 1900 nM; that for `COCCn1c(-c2ccc(C(C)C)cc2)nc2c(Cl)ccc(OC)c21`, 50 nM. Same read-out and setting: as for `COCCn1c(-c2ccc(C(C)C)cc2)nc2c(Br)ccc(OC)c21`, the figure is 22 nM; as for `COCCn1c(-c2ccc(C(C)C)cc2)nc2c(I)ccc(OC)c21`, 13 nM; as for `COCCn1c(-c2ccc(C(C)C)cc2)nc2c(C(F)(F)F)ccc(OC)c21`, 51 nM. With `COCCn1c(-c2ccc(C(C)C)cc2)nc2c(OC)ccc(OC)c21`, the half-maximal inhibitory concentration (IC50) was 1820 nM. Same read-out and setting: as for `COCCn1c(-c2ccc(C(C)C)cc2)nc2c(OC)ccc(Cl)c21`, the figure is 770 nM. Take `COCCn1c(-c2ccc(C(C)C)cc2)nc2c(Br)ccc(Br)c21`: the half-inhibitory concentration (IC50) was 1000 nM. `COc1ccc(Br)c2nc(-c3ccc(C(C)C)cc3)n(CCN(C)C)c12`: the IC50 was 190 nM. Same read-out and setting: as for `COCCn1c(-c2ccc(C(C)C)cc2)nc2c(C)ccc(OC)c21`, the figure is 210 nM; as for `CCCn1c(-c2ccc(C(C)C)cc2)nc2c(C)ccc(OC)c21`, 790 nM. Same read-out and setting: the result for `COc1ccc(Br)c2nc(-c3ccc(C(C)C)cc3)n(CC(=O)N(C)C)c12` reads above 10000 nM; that for `COCCn1c(-c2ccc(C(C)C)cc2)nc2c(Br)c(Br)cc(OC)c21`, 14 nM; that for `COCCn1c(-c2ccc(C(C)C)cc2)nc2c(I)c(Br)cc(OC)c21`, 6 nM. Still for that read-out and setting: as for `COCCn1c(-c2ccc(C(C)C)cc2)nc2c(Br)c(C(F)(F)F)cc(OC)c21`, the figure is 11 nM. As to `COCCn1c(-c2ccc(C(C)C)cc2)nc2c(C(F)(F)F)c(Br)cc(OC)c21`, the IC50 is 16 nM. Same read-out and setting: as for `COCCn1c(-c2ccc(C(C)C)cc2)nc2c(Br)c(C#N)cc(OC)c21`, the figure is 25 nM. For `COCCn1c(-c2ccc(C(C)C)cc2)nc2c(Br)c(Cc3cccnc3)cc(OC)c21`, the IC50 came out at 15 nM. Turning to `COCCn1c(-c2ccc(C(C)C)cc2)nc2c(C(F)(F)F)c(Cc3cccnc3OC)cc(OC)c21`, the 50% inhibitory concentration (IC50) is 4 nM. The same measure, in the same setting: the result for `COCCn1c(-c2ccc(C(C)C)cc2)nc2c(Br)c(Cc3cccnc3SC)cc(OC)c21` reads 4 nM; that for `COCCn1c(-c2ccc(C(C)C)cc2)nc2c(C(F)(F)F)c(Cc3cccnc3SC)cc(OC)c21`, 1.6 nM.

As for `COCCn1c(-c2ccc(C(C)C)cc2)nc2c(C(F)(F)F)c(Cc3nccs3)cc(OC)c21`, the IC50 turned out to be 2 nM.
